What was measured:
[1] = system: human B cell lymphoma line (RL line, CVCL_1660); experiment: Seahorse analysis of oxygen consumption rate (OCR); assay type: cell-based; conditions: for inhibition of OCR: RL cells; for effect on mitochondrial respiration: increasing concentrations 1.2-10 μM, compared to rotenone or IACS-010759
Method: The analyser known as “Seahorse” allows evaluation mitochondrial respiration in real time by measuring Oxygen Consumption Rate (OCR). The experiments have been carried out according to the supplier's recommendations (“Agilent_Seahorse XFe96”). To achieve this, 150,000 cells per well of a human B cell lymphoma line (“RL line, CVCL_1660”) have been seeded in 180 μL of Agilent_Seahorse XF RPMI medium (supplemented with pyruvate and glucose) on a dedicated Agilent_Seahorse 96-well plate, pre-treated with a solution of CellTak according to the supplier's recommendations (Corning). After 30 min incubation in a CO2-free oven, the plate has been analysed with the “Seahorse” using a protocol allowing injection (indicated by arrows in FIG. 1) of increasing amounts of compound to obtain a final cumulative concentration of 1.2 μM, 2.5 μM, 5 μM and 10 μM, followed each time by an OCR reading (in pmol/min) for 10 min. Data normalisation has been carried out by cell counting, using a device known as the “Cytation 1/5 Cell Imaging Multi-Mode reader” (BioTek Instruments, Inc) coupled to the “Seahorse”.
A control is used (DMSO, curve with solid squares) in each figure and corresponds to the medium studied without addition of compound (addition only of the DMSO diluent from the molecule stocks). […] In addition, injection of increasing concentrations of compounds in accordance with the invention induces progressive inhibition of OCR, in a similar manner and in stages for compounds (Ib) and (Ic), and progressively for compound (Ia).

[2] = system: RD136, CVCL_1649 rhabdomyosarcoma-like sarcoma line; experiment: Effect on cell growth, paediatric sarcoma line RD136 (CellTiterFluor); assay type: cell-based, human; conditions: 10 μM, 48 h, HLPM medium, FIG. 5a
Method: (§1) Human tumour cells from two paediatric rhabdomyosarcoma-like sarcoma lines (“RD136, CVCL_1649”, FIG. 5a and “RH3O, CVCL_0041”, FIG. 5b) have been seeded in a 96-well plate in the presence of a concentration of 10 μM of compound, in a volume of 100 μL of “Gibco Human Like Plasma Medium” (Gibco HPLM_Thermo Fisher Scientific). The effect of compounds (Ia), (Ib) and (Ic) has been compared with that of the inhibitors IACS-010759 (IACS) and IM156 (metformin analogue) currently in clinical trials, Rotenone (ROT) and the apoptosis inducer staurosporine (STS). After 48 hours of treatment, the effect on the number of living cells has been evaluated using the “CellTiterFluor” kit from Promega, identically to FIG. 2b.

[3] = system: RH30, CVCL_0041 rhabdomyosarcoma sarcoma line; experiment: Effect on cell growth, paediatric sarcoma line RH30 (CellTiterFluor); assay type: cell-based, human; conditions: 48 h, HLPM medium
Method: as §1
Human tumour cells from the paediatric rhabdomyosarcoma sarcoma line (“RH30, CVCL_0041”) have been seeded in a 96-well plate in the presence of a 10 μM or 25 μM concentration of compound, in a 100 μL volume of “Gibco Human Like Plasma Medium” (Gibco HPLM_Thermo Fisher Scientific). After 48 h of treatment, the effect of compounds (Ia), (Ie) and (If) on cell growth has been evaluated using the Promega “CellTiterFluor” kit as in FIG. 2b.

[4] = system: human B cell lymphoma cell line (RL, CVCL_1660); experiment: Effect on cell growth, B cell lymphoma line RL (live cell count by flow cytometry); assay type: cell-based; conditions: 5 μM or 10 μM, 48 h, RPMI medium, FIG. 6
Method: Cells from the human B cell lymphoma cell line (“RL, CVCL_1660”), have been seeded at a density of 100,000 cells per well, in a 96-well plate in the presence of a concentration of 5 μM or 10 μM of compound, in a volume of 100 μL of RPMI medium. After 48 h of treatment, analyses of the effect on cell growth have been conducted by counting live cells using flow cytometry, as in FIG. 2a.

[5] = system: human B cell lymphoma cell line (Karpas422, CVCL_1325); experiment: IC50 on cell growth, Karpas422 (CellTiter-Fluor Cell Viability Assay); assay type: cell-based; conditions: KARPAS-422, Karpas422, RPMI 1640 (11 mM glucose) with 10% serum, 48 h
Method: These experiments have been performed using cells from a human B cell lymphoma cell line (“Karpas422, CVCL_1325”) which have been seeded in “RPMI 1640” medium (11 mM glucose) supplemented with 10% serum, in the presence of increasing concentrations of compounds.
After 48 h of treatment, analyses of the effect on cell growth have been conducted, using the “CellTiter-Fluor Cell Viability Assay” (Promega) live cell detection kit, as in FIG. 2b, and following the supplier's instructions.

[6] = system: human B cell lymphoma cell line (Karpas422, CVCL_1325); experiment: Effect on cell growth, B cell lymphoma line Karpas422 (live cell count by flow cytometry or CellTiterFluor); assay type: cell-based; conditions: 10 μM, 48 h, RPMI and HLPM medium, FIG. 2
Method: Cells from a human B cell lymphoma cell line (“Karpas422, CVCL_1325”) have been seeded at a density of 100,000 cells per well, in a 96-well plate in the presence of a 10 μM concentration of compound, in a volume of 100 μL of medium. After 48 h of treatment, analyses of the effect on cell growth have been conducted, either by counting live cells using flow cytometry (FIG. 2a), or using a biochemical fluorescence detection kit for live cells (FIG. 2b).
In conventional “Gibco RPMI1640/10°/0 SVF” medium, the number of living cells has been determined after double AnnexinV/PI labelling, and analysis using the flow cytometer known as “ATTUNE” (Thermo Fisher Scientific). In “Gibco Human Like Plasma Medium”, the number of live cells has been evaluated using the “CellTiterFluor” kit and after measurement of relative fluorescence units (RFU) according to the supplier's recommendations (Promega). The term DMSO in FIG. 2 corresponds to the control, i.e. identical medium with no added compound.

[7] = system: 31 human B and T cell lymphoma lines; experiment: AnnexinV/PI cytometry, % apoptotic cells in 31 lymphoma lines; assay type: cell-based; conditions: compared with IACS-010759, FIG. 3
Source text: Analyses of the effect on cell growth of compound (Ia) in accordance with the invention in comparison with compound “[…]” (denoted IACS) not in accordance with the invention have been conducted on a wide series of 31 human B and T cell lymphoma lines, after AnnexinV/PI labelling and analysis with the “ATTUNE” cytometer (Thermo Fisher Scientific). In addition to the number of living cells represented in FIG. 2a, this technology enables the % of cells undergoing apoptosis to be evaluated. The results have been represented in FIG. 3 in the form of a “HeatMap” with a black and white gradient, black representing the highest % of apoptotic cells.

[8] = system: human tumour cells of a B cell lymphoma line (SUDHL-4, CVCL_0539); experiment: In ovo xenograft model on the chorioallantoic membrane (CAM) of the chicken embryo; assay type: in vivo
Source text: Preclinical evaluation analyses of the anti-tumour efficacy of compound (Ia) have been carried out using the xenograft model on the chorioallantoic membrane (CAM) of the chicken embryo. […] Treatments have been performed on days E11, E13, E15 and E17. At day E18, the upper CAM portions containing tumours have been removed and weighed, and the lower CAM fragments have been used to evaluate the presence of human cells indicative of metastases by RT-gPCR (polymerase chain reaction from an RNA sample). 0.0097 mg/kg Doxorubicin (DOXO) has been used as a positive control for treatment efficacy, compound (Ia) has been used at 3 different doses: 0.05 mg/kg, [2]: 0.15 mg/kg, and [3]: 0.45 mg/kg, and “IACS-010759” has been used at 2 different doses: 0.05 mg/kg, and [2]: 0.45 mg/kg. The negative control (denoted DMSO) represents treatment with the DMSO molecule diluent.

[9] = 10 μM cumulative concentration, FIG. 1b
[10] = dose 0.15 mg/kg (compound Ia [2])
[11] = dose 0.45 mg/kg (compound Ia [3], IACS [2])

| Compound | effect on cell growth (number of living cells) [2] | effect on cell growth (number of living cells) ([3]; 10 μM, FIG. 5b) | inhibition of OCR [1, 9] | effect on mitochondrial respiration [1] | effect on cell growth (number of live tumour cells) [6] | effect on cell growth (number of living cells) ([3]; 10 μM or 25 μM, FIG. 7) | further results |
| --- | --- | --- | --- | --- | --- | --- | --- |
| C=C(C)[C@H]1Cc2c(ccc3c2O[C@@H]2COc4cc(OC)c(OC)cc4[C@@H]2C3=O)O1 [Rotenone, reference compound] | – | – | – | – | – | – | inhibition of OCR ([1]; 1.2 μM, FIG. 1a): instantaneous and almost complete inhibition of OCR |
| c1cnc(NCCCCCCCCCCCCNc2ncccn2)nc1 [Compound Id] | inhibits cell growth | inhibits cell growth | – | – | – | – | effect on cell growth [4]: inhibitory effect on cell growth |
| N/C(=N/c1cccc2ccccc12)SCCCCCCS/C(N)=N\c1cccc2ccccc12 [reference compound] | – | – | – | – | – | – | IC50 [5]: 15.1 µM |
| c1cnc(NCCCCCCCCCCCCNC2=NCCN2)nc1 [Compound Ia, N′-(4,5-dihydro-1H-imidazol-2-yl)-N-pyrimidin-2-yl-dodecane-1,12-diamine] | – | – | Virtually complete inhibition of OCR | moderate and progressive effect | inhibit cell growth | inhibit cell growth | toxicity (% of apoptotic cells) [7]: increased with respect to that of “IACS-010759” for a sub-group of 8 lines; reduction in primary tumour volume [8, 10]: 73%; reduction in the relative number of metastases [8, 10]: 70%; reduction in primary tumour volume [8, 11]: 70%; reduction in the relative number of metastases [8, 11]: 72%; reduction in primary tumour volume ([8]; dose [1] 0.05 mg/kg): 48%; reduction in the relative number of metastases ([8]; dose [1] 0.05 mg/kg): 45%; IC50 [5]: 1.5 µM; effect on cell growth [4]: inhibitory effect on cell growth |
| c1cnc(N2CCN(CCCCCCCN3CCN(c4ncccn4)CC3)CC2)nc1 [Compound Ie] | – | – | – | – | – | inhibit cell growth | – |
| Cl.Cl.c1ccc(N2CCN(CCCCCCCN3CCN(c4ccccn4)CC3)CC2)nc1 [Compound If] | – | – | – | – | – | inhibit cell growth | – |
| Cl.Cl.c1cnc(N2CCN(CCCCCCCCCCCCN3CCN(c4ncccn4)CC3)CC2)nc1 [Compound Ib, 2-[4-[12-(4-pyrimidin-2-ylpiperazin-1-yl)dodecyl]piperazin-1-yl]pyrimidine dihydrochloride] | inhibits cell growth | inhibits cell growth | Virtually complete inhibition of OCR | moderate and progressive effect | inhibit cell growth | – | – |
| COc1cccc2c1C(=O)c1c(O)c3c(c(O)c1C2=O)C[C@@](O)(C(=O)CO)C[C@@H]3O[C@H]1C[C@H](N)[C@H](O)[C@H](C)O1 [doxorubicin, Doxorubicin, reference compound] | – | – | – | – | – | – | regression in the number of metastases ([8]; 0.0097 mg/kg, lower CAM, RT-qPCR): 99%; reduction in primary tumour volume ([8]; 0.0097 mg/kg, treatments E11, E13, E15, E17, read at E18): 90% |
| Cl.Cl.c1ccc(N2CCN(CCCCCCCCCCCCN3CCN(c4ccccn4)CC3)CC2)nc1 [Compound Ic, 1-(2-pyridyl)-4-[12-[4-(2-pyridyl)piperazin-1-yl]dodecyl]piperazine dihydrochloride] | inhibits cell growth | inhibits cell growth | Virtually complete inhibition of OCR | moderate and progressive effect | inhibit cell growth | – | – |

From patent US20250235454A1, “XOPHOS INHIBITORS FOR USE IN THE TREATMENT OF B-CELL LYMPHOMA” (CENTRE NATIONAL DE LA RECHERCHE SCIENTIFIQUE, priority 2022, published 2025)
